Patent US9314485B2, “Use of PI3K M-TOR and AKT inhibitors to induce FOXP3 expression and generate regulatory T cells” (Medical Research Council, priority 2006, dated 2016)

Assays:
DNA-PK = DNA-PK (Homo sapiens, UniProt P78527); details: unit inferred; read-out: Specificity for DNA-PK (IC50 determined in vitro); cited from earlier work
PI4KIIIα = PI4KIIIα (Homo sapiens, UniProt P42356); details: unit inferred; read-out: Specificity for PI4KIIIα (IC50 determined in vitro); cited from earlier work
PI3KC2β = PI3KC2β (Homo sapiens, UniProt O00750); details: unit inferred; read-out: Specificity for PI3KC2β (IC50 determined in vitro); cited from earlier work
PI3KC2α = PI3KC2α (Homo sapiens, UniProt O00443); details: unit inferred; read-out: Specificity for PI3KC2α (IC50 determined in vitro); cited from earlier work
PI3KC2γ = PI3KC2γ (Homo sapiens, UniProt O75747); details: unit inferred; read-out: Specificity for PI3KC2γ (IC50 determined in vitro); cited from earlier work
mTORC2 = mTORC2 (Homo sapiens, UniProt P42345); details: unit inferred; read-out: Specificity for mTORC2 (IC50 determined in vitro); cited from earlier work
PI4P5KIα [1] = details: second PI4P5KIα line; unit inferred; read-out: Specificity for PI4P5KIα (IC50 determined in vitro); cited from earlier work
PI4KIIα = PI4KIIα (Homo sapiens, UniProt Q9BTU6); details: unit inferred; read-out: Specificity for PI4KIIα (IC50 determined in vitro); cited from earlier work
PI4P5KIα [2] = molecular target: PI4P5KIα (Homo sapiens, UniProt Q99755); details: first PI4P5KIα line; unit inferred; read-out: Specificity for PI4P5KIα (IC50 determined in vitro); cited from earlier work
mTORC1 = mTORC1 (Homo sapiens, UniProt P42345); details: unit inferred; read-out: Specificity for mTORC1 (IC50 determined in vitro); cited from earlier work
ATM = ATM (Homo sapiens, UniProt Q13315); details: unit inferred; read-out: Specificity for ATM (IC50 determined in vitro); cited from earlier work
[3] = tested on: naive CD62LhiCD4+CD25− LN T cells; test: Foxp3 induction in newly activated naive CD4 T cells (intracellular staining); type: cell-based, mouse
Method: Mouse strains, cell sorting and culture Animal work was carried out according the Animals (Scientific Procedures) Act, UK. Lymph node (LN) cells were stained, analysed and sorted by flow cytometry as described (Cobb et al 2005 J. Exp. Med. 201: 1367-1373). Intracellular staining for Foxp3 protein was done as advised by the manufacturers (eBiosciences.com). The phosphorylation syatus of S6 ribosomal protein was determined using anti pS6 Ser235/236 (Cellsignaling cat.no. 2211, http://www.cellsignal.com) using the eBioscience Foxp3 staining kit and anti rabbit IgG-FITC or IgG-Cy5 (Jackson Immunoresearch). For induction of Foxp3 expression, sorted LN CD4+ CD25− CD62Lhi T cells were cultured at 1-3×10^6/ml with plate bound anti-TCRβ. […] After 18 hours the cells were either left in place for continued TCR stimulation or moved to uncoated wells with the indicated additives. To assess regulatory function, CD4 T cells cultured as indicated were titrated into round bottom wells containing either 1×10^5 CFSE labeled total LN cells or 5×10^4 CFSE labeled CD4^+ CD25^− T cells and 1×10^5 mitomycin-C treated (25 μg/ml, 20 min, 37° C.) T cell depleted splenocytes with the indicated concentrations of anti CD3 (2C11, Pharmingen). CD4 T cell CFSE profiles were recorded between 48 and 72 hours later.
Mice, Cell Sorting and Culture. Animal work was carried out according to the Animals (Scientific Procedures) Act, UK. Lymph node (LN) cells or thymocytes from wild type were stained, analysed and sorted by flow cytometry as described (Thompson et al., 2007 Immunity VoI 26 pp 335-344) from wild type (C57BL/6, BALB/c or C57BL/6×129) mice or from Rag1 deficient H2^b AND TCR transgenic mice. Antigen presenting cells were derived from bone marrow in the presence of GM-CSF and incubated with antigenic peptide. Intracellular staining for Foxp3 protein was done as advised by the manufacturers (eBiosciences.com). The phosphorylation status of S6 ribosomal protein was determined using anti pS6 Ser235/236 (Cell Signaling cat.no. 2211, http://www.cellsignal.com) using the eBioscience Foxp3 staining kit and anti rabbit IgG-FITC or IgG-Cy5 (Jackson ImmunoResearch). […] After 18 hours the cells were either left in place for continued TCR stimulation or moved to uncoated wells with the indicated additives. To assess regulatory function, CD4 T cells cultured as indicated were titrated into round bottom wells containing either 1×10^5 CFSE labeled total LN cells or 5×10^4 CFSE labeled CD4^+CD25^− T cells and 1×10^5 mitomycin-C treated (25 μg/ml, 20 min, 37° C.) T cell depleted splenocytes with the indicated concentrations of anti CD3 (2C11, Pharmingen). CD4 T cell CFSE profiles were recorded between 48 and 72 hours later.

PI4KIIIβ = PI4KIIIβ (Homo sapiens, UniProt Q9UBF8); details: unit inferred; read-out: Specificity for PI4KIIIβ (IC50 determined in vitro); cited from earlier work
hsVPS34 = hsVPS34 (Homo sapiens, UniProt Q8NEB9); details: unit inferred; read-out: Specificity for hsVPS34 (IC50 determined in vitro); cited from earlier work
ATR = ATR (Homo sapiens, UniProt Q13535); details: unit inferred; read-out: Specificity for ATR (IC50 determined in vitro); cited from earlier work
PI5P4KIIβ = molecular target: T1, PI5P4KIIβ (Homo sapiens, UniProt P78356); details: unit inferred; read-out: Specificity for PI5P4KIIβ (IC50 determined in vitro); cited from earlier work
T1 sequence (P78356 1-416): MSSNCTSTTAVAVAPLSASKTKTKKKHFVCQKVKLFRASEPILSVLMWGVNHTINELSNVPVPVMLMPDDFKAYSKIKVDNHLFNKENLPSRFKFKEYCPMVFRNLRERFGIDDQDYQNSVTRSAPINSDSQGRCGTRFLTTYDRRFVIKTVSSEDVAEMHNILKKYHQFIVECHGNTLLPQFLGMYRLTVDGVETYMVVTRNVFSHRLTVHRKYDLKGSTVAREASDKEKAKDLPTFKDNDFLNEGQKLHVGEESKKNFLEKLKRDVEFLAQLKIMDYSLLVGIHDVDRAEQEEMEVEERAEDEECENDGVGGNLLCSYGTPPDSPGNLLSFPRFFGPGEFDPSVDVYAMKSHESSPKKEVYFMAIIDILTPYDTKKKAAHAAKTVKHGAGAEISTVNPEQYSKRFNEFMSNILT

p110δ = p110δ (Homo sapiens, UniProt O00329); details: unit inferred; read-out: Specificity for p110δ (IC50 determined in vitro); cited from earlier work
p110α = p110α (Homo sapiens, UniProt P42336); details: unit inferred; read-out: Specificity for p110α (IC50 determined in vitro); cited from earlier work
p110γ = p110γ (Homo sapiens, UniProt P48736); details: unit inferred; read-out: Specificity for p110γ (IC50 determined in vitro); cited from earlier work
p110β = p110β (Homo sapiens, UniProt P42338); details: unit inferred; read-out: Specificity for p110β (IC50 determined in vitro); cited from earlier work

PI3KC2α, sequence (O00443 whole entry, species assumed): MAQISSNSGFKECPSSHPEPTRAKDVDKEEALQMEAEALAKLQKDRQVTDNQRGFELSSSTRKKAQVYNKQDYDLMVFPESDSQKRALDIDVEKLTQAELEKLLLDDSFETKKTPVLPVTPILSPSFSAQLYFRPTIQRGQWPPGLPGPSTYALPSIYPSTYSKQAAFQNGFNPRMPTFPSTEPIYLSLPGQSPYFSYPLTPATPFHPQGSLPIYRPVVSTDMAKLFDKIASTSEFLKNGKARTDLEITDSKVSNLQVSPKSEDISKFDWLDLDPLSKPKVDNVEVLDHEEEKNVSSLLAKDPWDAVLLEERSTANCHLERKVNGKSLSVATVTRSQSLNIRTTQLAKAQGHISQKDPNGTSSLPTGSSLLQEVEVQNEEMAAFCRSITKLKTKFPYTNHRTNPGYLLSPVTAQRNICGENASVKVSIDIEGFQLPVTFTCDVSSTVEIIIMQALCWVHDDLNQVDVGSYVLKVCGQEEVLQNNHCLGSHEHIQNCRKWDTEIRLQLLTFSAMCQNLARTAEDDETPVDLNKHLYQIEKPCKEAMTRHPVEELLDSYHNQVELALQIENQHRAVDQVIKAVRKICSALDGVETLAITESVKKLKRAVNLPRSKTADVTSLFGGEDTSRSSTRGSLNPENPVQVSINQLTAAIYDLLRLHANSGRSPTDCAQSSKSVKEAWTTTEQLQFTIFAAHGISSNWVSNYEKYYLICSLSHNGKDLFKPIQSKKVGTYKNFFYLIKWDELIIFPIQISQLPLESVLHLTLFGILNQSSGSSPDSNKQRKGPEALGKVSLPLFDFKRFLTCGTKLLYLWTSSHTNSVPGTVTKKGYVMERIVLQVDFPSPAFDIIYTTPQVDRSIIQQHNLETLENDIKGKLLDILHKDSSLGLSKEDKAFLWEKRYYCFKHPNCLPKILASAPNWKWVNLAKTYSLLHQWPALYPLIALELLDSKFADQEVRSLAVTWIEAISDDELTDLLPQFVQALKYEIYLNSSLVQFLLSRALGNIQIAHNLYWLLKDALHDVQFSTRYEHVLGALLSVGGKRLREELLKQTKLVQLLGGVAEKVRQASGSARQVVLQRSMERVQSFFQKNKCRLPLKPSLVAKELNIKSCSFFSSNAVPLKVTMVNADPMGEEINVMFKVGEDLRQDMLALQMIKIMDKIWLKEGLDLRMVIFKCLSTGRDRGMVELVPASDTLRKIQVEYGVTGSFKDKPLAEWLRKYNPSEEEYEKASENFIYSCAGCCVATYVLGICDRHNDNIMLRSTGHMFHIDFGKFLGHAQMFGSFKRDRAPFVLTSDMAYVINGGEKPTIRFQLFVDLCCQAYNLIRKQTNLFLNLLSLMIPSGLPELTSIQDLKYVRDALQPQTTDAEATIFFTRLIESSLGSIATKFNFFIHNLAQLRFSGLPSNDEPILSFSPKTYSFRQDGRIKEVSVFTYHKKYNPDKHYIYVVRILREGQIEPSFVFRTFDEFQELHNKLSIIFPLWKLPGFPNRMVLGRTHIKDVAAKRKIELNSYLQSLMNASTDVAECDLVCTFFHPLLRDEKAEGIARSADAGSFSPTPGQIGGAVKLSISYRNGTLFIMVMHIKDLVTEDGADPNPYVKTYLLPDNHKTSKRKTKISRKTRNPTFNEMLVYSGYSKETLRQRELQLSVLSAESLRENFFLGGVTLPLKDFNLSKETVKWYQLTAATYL
hsVPS34, sequence (Q8NEB9 whole entry): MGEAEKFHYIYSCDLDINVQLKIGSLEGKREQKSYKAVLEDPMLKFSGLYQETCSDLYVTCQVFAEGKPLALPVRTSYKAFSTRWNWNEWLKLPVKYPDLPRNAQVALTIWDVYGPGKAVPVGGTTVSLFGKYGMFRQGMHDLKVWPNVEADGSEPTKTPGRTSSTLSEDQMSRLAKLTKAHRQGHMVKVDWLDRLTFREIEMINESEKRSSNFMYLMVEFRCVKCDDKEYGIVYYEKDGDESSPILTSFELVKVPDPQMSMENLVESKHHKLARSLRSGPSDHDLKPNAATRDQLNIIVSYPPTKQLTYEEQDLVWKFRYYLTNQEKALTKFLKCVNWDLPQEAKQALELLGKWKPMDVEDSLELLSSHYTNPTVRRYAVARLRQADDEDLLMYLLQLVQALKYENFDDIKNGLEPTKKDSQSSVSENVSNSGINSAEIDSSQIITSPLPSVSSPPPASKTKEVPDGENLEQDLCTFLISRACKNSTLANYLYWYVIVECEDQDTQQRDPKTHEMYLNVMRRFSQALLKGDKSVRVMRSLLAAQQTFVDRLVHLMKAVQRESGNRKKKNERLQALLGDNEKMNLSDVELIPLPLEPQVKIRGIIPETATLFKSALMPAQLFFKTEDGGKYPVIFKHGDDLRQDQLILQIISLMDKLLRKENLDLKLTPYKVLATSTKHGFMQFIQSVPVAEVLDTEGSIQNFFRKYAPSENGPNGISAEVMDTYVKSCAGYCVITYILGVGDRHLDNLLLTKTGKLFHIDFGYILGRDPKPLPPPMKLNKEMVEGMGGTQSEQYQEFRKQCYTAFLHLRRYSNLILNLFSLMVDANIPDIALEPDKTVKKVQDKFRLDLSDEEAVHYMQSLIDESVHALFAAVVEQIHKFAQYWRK
PI3KC2γ, sequence (O75747 whole entry, species assumed): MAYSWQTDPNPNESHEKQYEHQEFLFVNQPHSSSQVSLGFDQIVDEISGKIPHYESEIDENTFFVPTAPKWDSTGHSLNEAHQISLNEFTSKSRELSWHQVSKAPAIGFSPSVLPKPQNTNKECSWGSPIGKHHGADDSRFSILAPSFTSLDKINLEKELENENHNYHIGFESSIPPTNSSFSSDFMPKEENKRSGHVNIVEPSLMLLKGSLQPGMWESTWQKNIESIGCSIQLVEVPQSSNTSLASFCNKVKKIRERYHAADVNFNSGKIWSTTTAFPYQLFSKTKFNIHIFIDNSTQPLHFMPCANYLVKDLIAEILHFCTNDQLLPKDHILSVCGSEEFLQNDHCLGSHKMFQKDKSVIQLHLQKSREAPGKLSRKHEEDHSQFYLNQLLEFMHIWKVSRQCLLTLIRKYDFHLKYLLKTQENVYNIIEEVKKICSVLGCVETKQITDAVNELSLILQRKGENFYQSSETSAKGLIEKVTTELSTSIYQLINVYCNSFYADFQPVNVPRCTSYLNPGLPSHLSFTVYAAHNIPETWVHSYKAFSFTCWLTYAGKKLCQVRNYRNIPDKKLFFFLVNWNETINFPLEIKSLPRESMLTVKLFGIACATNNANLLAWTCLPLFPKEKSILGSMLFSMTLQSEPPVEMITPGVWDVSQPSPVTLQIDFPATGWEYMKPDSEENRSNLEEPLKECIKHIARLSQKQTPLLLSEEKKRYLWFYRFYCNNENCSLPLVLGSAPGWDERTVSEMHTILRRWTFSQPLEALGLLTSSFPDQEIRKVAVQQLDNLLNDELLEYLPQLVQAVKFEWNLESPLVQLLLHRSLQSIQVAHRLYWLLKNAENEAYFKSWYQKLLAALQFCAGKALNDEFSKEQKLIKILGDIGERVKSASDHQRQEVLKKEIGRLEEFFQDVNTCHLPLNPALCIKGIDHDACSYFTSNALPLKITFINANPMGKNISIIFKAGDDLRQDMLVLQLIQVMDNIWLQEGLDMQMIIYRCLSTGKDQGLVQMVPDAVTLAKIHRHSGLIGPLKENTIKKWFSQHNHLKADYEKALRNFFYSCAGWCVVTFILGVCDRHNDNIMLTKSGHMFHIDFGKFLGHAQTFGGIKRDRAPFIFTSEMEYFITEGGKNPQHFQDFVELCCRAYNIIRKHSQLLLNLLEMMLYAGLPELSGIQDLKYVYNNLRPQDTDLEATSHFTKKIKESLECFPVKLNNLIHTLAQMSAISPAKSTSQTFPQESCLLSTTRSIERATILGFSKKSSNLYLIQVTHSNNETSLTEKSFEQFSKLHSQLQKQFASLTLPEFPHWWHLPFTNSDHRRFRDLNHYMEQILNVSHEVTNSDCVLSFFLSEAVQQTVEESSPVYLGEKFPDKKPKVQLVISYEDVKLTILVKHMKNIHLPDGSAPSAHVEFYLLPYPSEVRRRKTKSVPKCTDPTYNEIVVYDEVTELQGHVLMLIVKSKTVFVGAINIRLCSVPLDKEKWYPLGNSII
PI4P5KIα (Homo sapiens, UniProt Q99755), sequence (Q99755 whole entry): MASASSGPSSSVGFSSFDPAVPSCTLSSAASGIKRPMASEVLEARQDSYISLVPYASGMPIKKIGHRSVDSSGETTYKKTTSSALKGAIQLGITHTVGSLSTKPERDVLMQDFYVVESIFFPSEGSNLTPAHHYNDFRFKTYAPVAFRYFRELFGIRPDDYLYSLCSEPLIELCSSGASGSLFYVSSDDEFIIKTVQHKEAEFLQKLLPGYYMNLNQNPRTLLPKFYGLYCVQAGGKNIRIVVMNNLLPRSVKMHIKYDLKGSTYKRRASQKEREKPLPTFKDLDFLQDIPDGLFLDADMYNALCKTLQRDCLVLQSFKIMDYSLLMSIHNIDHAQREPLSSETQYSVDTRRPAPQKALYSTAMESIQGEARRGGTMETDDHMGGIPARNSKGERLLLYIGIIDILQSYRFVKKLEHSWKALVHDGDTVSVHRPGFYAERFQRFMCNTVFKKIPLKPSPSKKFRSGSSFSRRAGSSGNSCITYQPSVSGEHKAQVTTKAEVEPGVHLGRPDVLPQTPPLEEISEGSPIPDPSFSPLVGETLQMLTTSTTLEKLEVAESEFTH
PI4KIIα, sequence (Q9BTU6 whole entry): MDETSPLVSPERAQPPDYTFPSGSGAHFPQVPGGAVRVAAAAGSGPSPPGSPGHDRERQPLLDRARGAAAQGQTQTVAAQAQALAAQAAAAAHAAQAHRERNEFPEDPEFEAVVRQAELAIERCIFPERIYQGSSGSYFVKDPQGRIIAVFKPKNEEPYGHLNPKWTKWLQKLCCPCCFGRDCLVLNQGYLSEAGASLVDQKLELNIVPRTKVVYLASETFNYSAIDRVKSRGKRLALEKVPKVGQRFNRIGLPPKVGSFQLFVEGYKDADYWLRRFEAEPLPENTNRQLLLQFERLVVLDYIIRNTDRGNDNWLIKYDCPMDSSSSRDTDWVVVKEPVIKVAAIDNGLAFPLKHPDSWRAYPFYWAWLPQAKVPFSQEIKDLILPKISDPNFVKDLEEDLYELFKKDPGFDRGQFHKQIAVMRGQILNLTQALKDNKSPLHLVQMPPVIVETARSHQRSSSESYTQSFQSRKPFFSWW

In the case of `Cc1ccccc1-n1c(Cn2cnc3c(N)ncnc32)nc2cccc(C)c2c1=O` [IC87114], the IC50 (DNA-PK) is given as greater than 100000 nM, the IC50 (PI4KIIIα) is given as greater than 100 µM and the IC50 (PI3KC2β) is given as greater than 100 µM. The IC50 (PI3KC2α) was greater than 100 µM, the IC50 (PI3KC2γ) was greater than 100 µM and the IC50 (mTORC2) was greater than 100 µM. The IC50 (PI4P5KIα [1]) was greater than 100 µM, the IC50 (PI4KIIα) was greater than 100 µM and the IC50 (PI4P5KIα [2]) was greater than 100 µM. For the same molecule, the IC50 (mTORC1) was greater than 100 µM, the IC50 (ATM) was greater than 100 µM and the “Foxp3 induction at 1 μM” value ([3]; 1 μM) was 15%. The “increase in Foxp3 expressing cells over and above TCR deprivation alone” value ([3]; IC-87114 down to 0.01 μM) was 10-15%, the IC50 (PI4KIIIβ) was greater than 100 µM and the IC50 (hsVPS34) was greater than 100 µM. The IC50 (ATR) was greater than 100 µM and the IC50 (PI5P4KIIβ) was greater than 100 µM.
In the case of `Cc1ccccc1Oc1cccc2c(=O)cc(N3CCOCC3)[nH]c12` [TGX115], the IC50 (DNA-PK) is given as 1200 nM, the IC50 (p110δ) is given as 630 nM and the IC50 (PI4KIIIα) is given as greater than 100 µM. For the same molecule, the IC50 (PI3KC2β) was 50 µM, the IC50 (PI3KC2α) was greater than 100 µM and the IC50 (PI3KC2γ) was 100 µM. For the same molecule, the IC50 (p110α) was 61 µM, the IC50 (mTORC2) was greater than 100 µM and the IC50 (PI4P5KIα [1]) was greater than 100 µM. The IC50 (PI4KIIα) was greater than 100 µM, the IC50 (p110γ) was 100 µM and the IC50 (p110β) was 130 nM. The IC50 (PI4P5KIα [2]) was greater than 100 µM, the IC50 (mTORC1) was greater than 100 µM and the IC50 (ATM) was 20 µM. The “effect on Foxp3 expression at 0.1 μM” value ([3]; 0.1 μM) was “did not affect Foxp3 expression”, the “effect on Foxp3 expression at 10 μM” value [3] was “slight impact on Foxp3 expression” and the “effect on Foxp3 expression at 10 μM” value ([3]; listed as TGX-115) was “very little effect”. The IC50 (PI4KIIIβ) was greater than 100 µM, the IC50 (hsVPS34) was 5.2 µM and the IC50 (ATR) was greater than 100 µM. The IC50 (PI5P4KIIβ) was greater than 100 µM.
